From patent US11952363B2, “Piperazine compounds for the treatment of autoimmune disease” (Hoffmann-La Roche Inc., priority 2018, dated 2024)
pIC50: −log10 of the molar value.

Experiments:
human TLR9 = target: T1, human TLR9 (Homo sapiens, UniProt Q9NR96); assay: HEK293-Blue-hTLR-9 cells assay (SEAP reporter, ODN2006 stimulation); type: cell-based; settings: HEK293-Blue-hTLR9 cells, ODN2006 ligand, 20 hrs incubation; read-out: HEK/hTLR9 IC50
T1 sequence (Q9NR96 26-1032): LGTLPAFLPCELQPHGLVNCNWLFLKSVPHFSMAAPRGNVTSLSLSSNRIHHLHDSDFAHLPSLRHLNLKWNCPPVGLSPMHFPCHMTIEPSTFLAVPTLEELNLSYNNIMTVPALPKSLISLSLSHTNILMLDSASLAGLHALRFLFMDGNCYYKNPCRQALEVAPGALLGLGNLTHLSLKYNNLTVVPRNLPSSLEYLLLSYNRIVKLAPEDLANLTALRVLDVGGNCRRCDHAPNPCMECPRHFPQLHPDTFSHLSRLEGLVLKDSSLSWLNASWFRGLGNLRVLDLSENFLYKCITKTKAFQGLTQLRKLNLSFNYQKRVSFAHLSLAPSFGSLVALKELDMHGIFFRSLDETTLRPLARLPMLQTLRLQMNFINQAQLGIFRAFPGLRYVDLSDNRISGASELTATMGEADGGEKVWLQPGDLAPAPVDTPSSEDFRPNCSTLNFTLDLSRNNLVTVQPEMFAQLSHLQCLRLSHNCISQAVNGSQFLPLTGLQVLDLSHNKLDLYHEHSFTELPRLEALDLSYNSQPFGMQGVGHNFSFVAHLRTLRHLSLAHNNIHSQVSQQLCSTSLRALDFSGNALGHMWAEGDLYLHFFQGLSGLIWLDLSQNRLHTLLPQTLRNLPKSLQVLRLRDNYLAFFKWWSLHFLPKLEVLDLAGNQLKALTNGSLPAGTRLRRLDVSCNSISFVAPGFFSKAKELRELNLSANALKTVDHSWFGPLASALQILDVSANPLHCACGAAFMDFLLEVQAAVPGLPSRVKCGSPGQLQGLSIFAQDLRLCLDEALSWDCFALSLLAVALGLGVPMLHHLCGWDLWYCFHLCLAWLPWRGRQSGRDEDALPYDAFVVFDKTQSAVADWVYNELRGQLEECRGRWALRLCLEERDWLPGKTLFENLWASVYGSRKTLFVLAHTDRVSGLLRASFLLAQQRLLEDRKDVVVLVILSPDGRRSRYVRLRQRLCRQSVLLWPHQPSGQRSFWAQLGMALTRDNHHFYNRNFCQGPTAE
Experimental: The following tests were carried out in order to determine the activity of the compounds of formula (I) in HEK293-Blue-hTLR-7/8/9 cells assay.
A stable HEK293-Blue-hTLR-9 cell line was purchased from InvivoGen (Cat.#: hkb-htlr9, San Diego, California, USA). These cells were originally designed for studying the stimulation of human TLR9 by monitoring the activation of NF-κB. A SEAP (secreted embryonic alkaline phosphatase) reporter gene was placed under the control of the IFN-β minimal promoter fused to five NF-κB and. AP-1-binding sites. The SEAP was induced by activating NF-κB and AP-1 via stimulating HEK-Blue hTLR9 cells with TLR9 ligands. Therefore the reporter expression was declined by TLR9 antagonist under the stimulation of a ligand, such as ODN2006 (Cat.#: tlr1-2006-1, Invivogen, San Diego, California, USA), for incubation of 20 his. The cell culture supernatant SEAP reporter activity was determined using QUANTI-Blue™ kit (Cat.#: rep-qb1, Invivogen, San Diego, California, USA) at a wavelength of 640 nm, a detection medium that turns purple or blue in the presence of alkaline phosphatase.
HEK293-Blue-hTLR9 cells were incubated at a density of 250,000-450,000 cells/mL in a volume of 170 μL in a 96-well plate in Dulbecco's Modified Eagle's medium (DMEM) containing 4.5 g/L glucose, 50 U/mL penicillin, […], […], 2 mM L-glutamine, 10% (v/v) heat-inactivated fetal bovine serum with addition of 20 μL test compound in a serial dilution in the presence of final DMSO at 1% and 10 p L of 20uM ODN2006 in above DMEM, perform incubation under 37° C. in a CO2 incubator for 20 hrs. Then 20 μL of the supernatant from each well was incubated with 180 μL Quanti-blue substrate solution at 37° C. for 2 h and the absorbance was read at 620˜655 nm using a spectrophotometer. The signaling pathway that TLR9 activation leads to downstream NF-κB activation has been widely accepted, and therefore similar reporter assay was modified for evaluating TLR9 antagonist.

CYP2D6 = target: T2, CYP2D6 (Homo sapiens, UniProt P10635); assay: CYP inhibition assay in human liver microsome; type: in vitro ADME; settings: liver microsomes, probe dextromethorphan, 10 μM compound, dextromethorphan substrate, percentage inhibition < 0: not or weak inhibitor, read-out: CYP 2D6 inhibition % @10 μM
T2 construct: tissue BD-Gentest 452117; host or cells: human liver microsomes
Experimental: This is a high throughput screening assay used for assessment of reversible inhibition of CYP2D6 activity of test compounds in human liver microsome (HLM) in early discovery stage.
10 mM DMSO stock solutions of test compounds were diluted in DMSO to generate 2 mM intermediate stock solution. 250 nL of intermediate stock solution were transferred in duplicate into 3 separate 384 well microtitre plates (assay-ready plates). A mixture of HLM and each substrate was made up. 45 μL of HLM substrate mix was then transferred to each well of an assay ready plate and mixed. The negative (solvent) and positive control (standard inhibitor for CYP 2D6) were included in each assay ready plate. The assay ready plate was warmed to 37° C. in an incubator over 10 minutes. 5μL pre-warmed NADPH regenerating system was added to each incubation well to start the reaction. Final incubation volume was 50 μL. The assay plate then was placed back in the 37° C. incubator. After 10 minutes incubation, incubates were quenched by addition of 50 μL 100% acetonitrile containing internal standards (20 ng/mL D3-Dextrorphan). The supernatants were collected for RapidFire/MS/MS analysis.
RapidFire online solid phase extraction/sample injection system (Agilent) coupled with API4000 triple quadrupole mass spectrometer (AB Sciex) were used for sample analysis. The mobile phase composed of acetonitrile and water supplemented with 0.1% formic acid. A C4 solid phase extraction cartridge is used for sample separation. MS detection is achieved in positive ion MRM mode.
Peak areas for substrate, metabolite and internal standard are determined using the RapidFire integrator software (version 3.6.12009.12296). Peak area ratios (PAR) of metabolite and internal standard (stable-labelled metabolite) are then calculated. The measurement window for each experiment is then defined:
PAR (0% activity)=average PAR for all incubations containing concentrated inhibitor;
Par (100% activity)=average PAR for all incubations containing no inhibitor (DMSO controls);
% Activity (test inhibitor)
=[PAR(test inhibitor)-PAR(0% activity)]/[PAR(100% activity)-PAR(0% activity)];
% Inhibition (test inhibitor)=100-% Activity (test inhibitor).

T2 sequence (P10635 whole entry): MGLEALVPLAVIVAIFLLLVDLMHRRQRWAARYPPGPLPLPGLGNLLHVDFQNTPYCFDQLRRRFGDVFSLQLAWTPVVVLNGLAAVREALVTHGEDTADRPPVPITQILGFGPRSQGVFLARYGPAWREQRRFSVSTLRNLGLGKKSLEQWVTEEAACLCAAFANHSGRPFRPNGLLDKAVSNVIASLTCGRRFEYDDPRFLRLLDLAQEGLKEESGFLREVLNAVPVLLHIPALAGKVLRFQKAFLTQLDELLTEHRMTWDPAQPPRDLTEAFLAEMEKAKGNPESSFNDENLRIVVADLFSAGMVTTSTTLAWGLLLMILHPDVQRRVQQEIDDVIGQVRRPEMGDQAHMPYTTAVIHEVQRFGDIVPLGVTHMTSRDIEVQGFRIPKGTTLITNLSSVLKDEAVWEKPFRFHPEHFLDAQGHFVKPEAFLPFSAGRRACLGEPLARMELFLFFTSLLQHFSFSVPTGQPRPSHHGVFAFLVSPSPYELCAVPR

SMILES	pIC50 (human TLR9)	inhibition at 10 min, 10 µM (CYP2D6)
CC1CN(c2ccc(C#N)c3ncccc23)CCN1CC(=O)Nc1ccc(N2CCNCC2)cc1 (stereo not shown) [Example 17, 2-[4-(8-Cyano-5-quinolyl)-2-methyl-piperazin-1-yl]-N-(4-piperazin-1-ylpheny)acetamide]	6.99	7%
CC1CN(c2ccc(C#N)c3ncccc23)CCN1CC(=O)N1CCC(C2CCN(C)CC2)CC1 (stereo not shown) [Example 19, 5-[3-methyl-4-[2-[4-(1-methyl-4-piperidyl)-1-piperidyl]-2-oxo-ethyl]piperazin-1-yl]quinoline-8-carbonitrile]	6.94	14.5%
C[C@@H]1CN(c2ccc(C#N)c3ncccc23)C[C@H](C)N1Cc1ncc(N2CCN(C(=O)CN(C)C)CC2)cn1 [Example 6, 5-[(3S,5R)-4-[[5-[4-[2-(Dimethylamino)acetyl]piperazin-1-yl]pyrimidin-2-yl]methyl]-3,5-dimethyl-piperazin-1-yl]quinoline-8-carbonitrile]	6.86	5%
C[C@@H]1CN(c2ccc(C#N)c3ncccc23)C[C@H](C)N1Cc1ccc(N[C@@H]2CNC[C@@H]2F)cn1 [Example 9, 5-[(3R,5S)-3,5-Dimethyl-4-[[5-[[(3R,4S)-4-fluoropyrrolidin-3-yl]amino]-2-pyridyl]methyl]piperazin-1-yl]quinoline-8-carbonitrile]	7.33	-6.5%
C[C@@H]1CN(c2ccc(C#N)c3ncccc23)C[C@H](C)N1Cc1ccc(N2CCN(C)CC2)cn1 [Example 7, 5-[(3S,5R)-3,5-dimethyl-4-[[5-(4-methylpiperazin-1-yl)-2-pyridyl]methyl]piperazin-1-yl]quinoline-8-carbonitrile]	6.92	–
C[C@@H]1CN(c2ccc(C#N)c3ncccc23)C[C@H](C)N1Cc1ccc(N2CCN(C(=O)C3CCCN3)CC2)cn1 (stereo partly drawn) [Example 10, 5-[(3R,5S)-3,5-Dimethyl-4-[[5-[4-(pyrrolidine-2-carbonyl)piperazin-1-yl]-2-pyridyl]methyl]piperazin-1-yl]quinoline-8-carbonitrile]	7.39	4.5%
C[C@@H]1CN(c2ccc(C#N)c3ncccc23)C[C@H](C)N1CC(=O)N1CCc2nc(N3CCNCC3)ccc2C1 [Example 13, 5-[(3R,5S)-3,5-Dimethyl-4-[2-oxo-2-(2-piperazin-1-yl-7,8-dihydro-5H-1,6-naphthyridin-6-yl)ethyl]piperazin-1-yl]quinoline-8-carbonitrile]	6.88	–
CC1CN(c2ccc(C#N)c3ncccc23)CCN1CC(=O)Nc1ccc2c(c1)CCNC2 (stereo not shown) [Example 18, 2-[4-(8-Cyano-5-quinolyl)-2-methyl-piperazin-1yl]-N-(1,2,3,4-tetrahydroisoquinolin-6-yl)acetamide]	6.92	12.5%
C[C@@H]1CN(c2ccc(C#N)c3ncccc23)C[C@H](C)N1Cc1ccc(N2CC3CNCC(C2)O3)cn1 [Example 8, 5-[(3S,5R)-3,5-Dimethyl-4-[[5-(9-oxa-3,7-diazabicyclo[3.3.1]nonan-3-yl)-2-pyridyl]methyl]piperazin-1-yl]quinoline-8-carbonitrile]	7.14	12.5%

Results, then the compound that gave them:

pIC50 (human TLR9)	inhibition at 10 min, 10 µM (CYP2D6)	SMILES
6.86	–	C[C@@H]1CN(c2ccc(C#N)c3ncccc23)C[C@H](C)N1Cc1ncc(N2CCNCC2)cn1 [Example 4, 5-[(3S,5R)-3,5-Dimethyl-4-[(5-piperazin-1-ylpyrimidin-2-yl)methyl]piperazin-1-yl]quinoline-8-carbonitrile]
7.19	–	C[C@@H]1CN(c2ccc(C#N)c3ncccc23)C[C@@H](C)N1Cc1ccc(N2CCNCC2)cc1 [Example 2]
7.08	5.5%	C[C@@H]1CN(c2ccc(C#N)c3ncccc23)C[C@H](C)N1Cc1ccc(N2CCNCC2)cn1 [Example 5, 5-[(3S,5R)-3,5-Dimethyl-4-[(5-piperazin-1-yl-2-pyridyl)methyl]piperazin-1-yl]quinoline-8-carbonitrile]
7.03	19%	C[C@@H]1CN(c2ccc(C#N)c3ncccc23)C[C@H](C)N1CC(=O)N1CCc2ccc(N3CCNCC3)cc2C1 [Example 15, 5-[(3R,5S)-3,5-dimethyl-4-[2-pxp-2-(7-piperazin-1-yl-3,4-dihydro-1H-isoquinolin-2-yl)ethyl]piperazin-1-yl]quinoline-8-carbonitrile]
7.41	17%	C[C@@H]1CN(c2ccc(C#N)c3ncccc23)C[C@H](C)N1Cc1ccc(N2CCNCC2)cc1 [Example 1, 5-[(3R,5S)-3,5-Dimethyl-4-[(4-piperazin-1-ylphenyl)methyl]piperazin-1-yl]quinoline-8-carbonitrile]
7.03	-2.5%	C[C@@H]1CN(c2ccc(C#N)c3ncccc23)C[C@H](C)N1Cc1ccc(N2CCNCC2)nc1 [Example 3, 5-[(3R,5S)-3,5-Dimethyl-4-[(6-piperazin-1-yl-3-pyridyl)methyl]piperazin-1-yl]quinoline-8-carbonitrile]
7.22	–	C[C@@H]1CN(c2ccc(C#N)c3ncccc23)C[C@H](C)N1Cc1ccc(N2CCNCC2CO)cc1 (stereo partly drawn) [Example 12, 5-[(3R,5S)-4-[[4-[2-(Hydroxymethyl)piperazin-1-yl]phenyl]methyl]-3,5-dimethyl-piperazin-1-yl]quinoline-8-carbonitrile]
6.94	–	C[C@@H]1CN(c2ccc(C#N)c3ncccc23)C[C@H](C)N1CC(=O)N1CCc2cc(N3CCNCC3)ccc2C1 [Example 14, 5-[(3R,5S)-3,5-Dimethyl-4-[2-oxo-2-(6-piperazin-1-yl-3,4-dihyrdo-1H-isoquinolin-2-yl)ethyl]piperazin-1-yl]quinoline-8-carbonitrile]
